ChEMBL document CHEMBL4706771, “Discovery of Orally Bioavailable Ligand Efficient Quinazolindiones as Potent and Selective Tankyrases Inhibitors” (ACS Med Chem Lett, 2021)

Legend:
[1] = Inhibition of Wnt/beta-catenin (unknown origin) expressed in human HEK293 cells expressing MSRII transfected with DNA-LF2K incubated for 24 hrs by luciferase reporter gene assay; conditions: HEK293, 24 h
[2] = molecular target: T1, Poly [ADP-ribose] polymerase tankyrase-1 (Homo sapiens, UniProt O95271); assay: Inhibition of human TNKS1 incubated for 1 to 2 hrs by fluorescence polarization assay
T1 sequence (O95271 whole entry): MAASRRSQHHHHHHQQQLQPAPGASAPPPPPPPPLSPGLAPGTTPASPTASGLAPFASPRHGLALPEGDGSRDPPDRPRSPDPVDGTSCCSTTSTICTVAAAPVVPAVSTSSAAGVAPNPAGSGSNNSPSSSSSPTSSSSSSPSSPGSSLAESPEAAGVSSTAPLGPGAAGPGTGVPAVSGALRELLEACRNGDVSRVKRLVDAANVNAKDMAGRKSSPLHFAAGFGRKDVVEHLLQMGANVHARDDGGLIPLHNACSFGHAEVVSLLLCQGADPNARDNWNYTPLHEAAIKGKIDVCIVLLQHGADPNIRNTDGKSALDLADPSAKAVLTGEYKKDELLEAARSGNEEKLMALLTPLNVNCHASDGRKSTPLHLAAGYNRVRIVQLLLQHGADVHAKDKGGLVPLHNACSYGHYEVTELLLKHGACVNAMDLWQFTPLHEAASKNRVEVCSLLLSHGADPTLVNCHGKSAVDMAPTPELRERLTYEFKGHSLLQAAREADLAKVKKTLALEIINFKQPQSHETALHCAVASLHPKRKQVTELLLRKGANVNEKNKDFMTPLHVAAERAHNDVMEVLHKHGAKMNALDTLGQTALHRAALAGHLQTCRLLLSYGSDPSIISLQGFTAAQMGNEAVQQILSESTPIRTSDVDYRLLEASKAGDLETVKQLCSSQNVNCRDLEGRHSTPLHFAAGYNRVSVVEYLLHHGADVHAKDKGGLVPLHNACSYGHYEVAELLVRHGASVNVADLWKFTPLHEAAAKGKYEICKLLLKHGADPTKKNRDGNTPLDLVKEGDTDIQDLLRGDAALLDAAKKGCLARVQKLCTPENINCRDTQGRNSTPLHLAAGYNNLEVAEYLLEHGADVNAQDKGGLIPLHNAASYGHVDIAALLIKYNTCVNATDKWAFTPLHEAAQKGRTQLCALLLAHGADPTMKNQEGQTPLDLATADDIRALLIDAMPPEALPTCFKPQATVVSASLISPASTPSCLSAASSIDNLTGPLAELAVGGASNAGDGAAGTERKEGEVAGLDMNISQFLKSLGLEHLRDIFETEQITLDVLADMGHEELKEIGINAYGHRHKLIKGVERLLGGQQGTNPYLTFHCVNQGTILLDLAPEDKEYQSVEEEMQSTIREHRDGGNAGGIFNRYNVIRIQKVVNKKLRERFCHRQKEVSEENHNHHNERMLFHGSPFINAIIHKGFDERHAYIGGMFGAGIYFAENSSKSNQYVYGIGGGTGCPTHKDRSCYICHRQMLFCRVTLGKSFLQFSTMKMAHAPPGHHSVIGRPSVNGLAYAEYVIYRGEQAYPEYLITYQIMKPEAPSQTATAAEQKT

[3] = Oral bioavailability in Sprague-Dawley rat at 10 mg/kg; type: ADME, organism-based; conditions: in vivo
[4] = Clearance in Sprague-Dawley rat at 10 mg/kg, po or 0.5 mg/kg, iv; type: ADME, organism-based; conditions: in vivo
[5] = Dose normalised AUC in Sprague-Dawley rat at 10 mg/kg, po; type: ADME, organism-based; conditions: in vivo
[6] = Volume of distribution in Sprague-Dawley rat at 10 mg/kg, po or 0.5 mg/kg, iv; type: ADME, organism-based; conditions: in vivo
[7] = Half life in Sprague-Dawley rat at 10 mg/kg, po or 0.5 mg/kg, iv; type: ADME, organism-based; conditions: in vivo
[8] = Half life in Sprague-Dawley rat at 0.5 mg/kg, iv; type: ADME, organism-based; conditions: in vivo
[9] = Volume of distribution in Sprague-Dawley rat at 0.5 mg/kg, iv; type: ADME, organism-based; conditions: in vivo
[10] = Clearance in Sprague-Dawley rat at 0.5 mg/kg, iv; type: ADME, organism-based; conditions: in vivo
[11] = molecular target: T2, Poly [ADP-ribose] polymerase tankyrase-2 (Homo sapiens, UniProt Q9H2K2); assay: Inhibition of human TNKS2 incubated for 1 to 2 hrs by fluorescence polarization assay
T2 sequence (Q9H2K2 whole entry): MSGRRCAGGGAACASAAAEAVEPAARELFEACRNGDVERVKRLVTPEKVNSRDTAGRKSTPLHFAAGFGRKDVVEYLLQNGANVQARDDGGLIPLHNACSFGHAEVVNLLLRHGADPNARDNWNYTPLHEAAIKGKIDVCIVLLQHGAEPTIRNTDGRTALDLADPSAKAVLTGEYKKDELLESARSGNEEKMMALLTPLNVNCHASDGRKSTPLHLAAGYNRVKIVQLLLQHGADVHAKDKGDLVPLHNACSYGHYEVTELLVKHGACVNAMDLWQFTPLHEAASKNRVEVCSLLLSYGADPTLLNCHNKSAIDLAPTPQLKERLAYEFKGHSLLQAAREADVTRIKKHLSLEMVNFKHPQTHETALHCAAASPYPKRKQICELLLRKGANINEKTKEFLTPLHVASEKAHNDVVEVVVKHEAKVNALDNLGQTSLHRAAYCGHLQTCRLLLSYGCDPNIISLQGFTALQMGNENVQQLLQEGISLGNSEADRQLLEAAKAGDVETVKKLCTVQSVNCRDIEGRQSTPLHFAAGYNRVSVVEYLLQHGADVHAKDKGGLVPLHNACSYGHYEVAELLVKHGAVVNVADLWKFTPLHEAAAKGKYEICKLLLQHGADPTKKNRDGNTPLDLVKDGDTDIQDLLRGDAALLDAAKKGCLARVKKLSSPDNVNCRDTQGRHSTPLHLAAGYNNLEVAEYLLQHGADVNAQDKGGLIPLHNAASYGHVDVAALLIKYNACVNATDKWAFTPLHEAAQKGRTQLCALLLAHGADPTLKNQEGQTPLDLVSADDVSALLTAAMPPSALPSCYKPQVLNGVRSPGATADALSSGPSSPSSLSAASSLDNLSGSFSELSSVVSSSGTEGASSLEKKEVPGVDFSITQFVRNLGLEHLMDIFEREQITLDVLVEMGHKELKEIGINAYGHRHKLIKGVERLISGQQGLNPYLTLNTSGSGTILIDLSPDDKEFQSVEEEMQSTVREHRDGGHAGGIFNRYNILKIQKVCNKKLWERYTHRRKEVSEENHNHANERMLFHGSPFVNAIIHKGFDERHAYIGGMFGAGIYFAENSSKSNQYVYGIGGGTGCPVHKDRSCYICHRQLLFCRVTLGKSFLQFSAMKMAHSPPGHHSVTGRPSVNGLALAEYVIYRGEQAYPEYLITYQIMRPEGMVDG

[12] = Oral bioavailability in Sprague-Dawley rat at 5 mg/kg; type: ADME, organism-based; conditions: in vivo
[13] = Clearance in Sprague-Dawley rat at 5 mg/kg, po or 2 mg/kg, iv; type: ADME, organism-based; conditions: in vivo
[14] = Half life in Sprague-Dawley rat at 5 mg/kg, po or 2 mg/kg, iv; type: ADME, organism-based; conditions: in vivo
[15] = Dose normalised AUC in Sprague-Dawley rat at 5 mg/kg, po; type: ADME, organism-based; conditions: in vivo
[16] = Volume of distribution in Sprague-Dawley rat at 5 mg/kg, po or 2 mg/kg, iv; type: ADME, organism-based; conditions: in vivo

Row | Compound | IC50 [1] [nM] | IC50 [2] [nM] | other results
1 | Cc1cccc2c1c(=O)n(C[C@H]1CC[C@H](C(=O)Nc3cnn(C)c3)CC1)c(=O)n2Cc1cccc(C(F)(F)F)c1C#N | 10 | 2.5 | –
2 | N#Cc1c(Cn2c(=O)n(C[C@H]3CC[C@H](C(=O)O)CC3)c(=O)c3c(Cl)cccc32)cccc1C(F)(F)F | 63.1 | 15.8 | –
3 | Cc1c(F)ccc2c1c(=O)n(C[C@H]1CC[C@H](C(=O)O)CC1)c(=O)n2Cc1cccc(C(F)(F)F)c1C#N | 20 | – | –
4 | Cc1ccc2c(c1C)c(=O)n(C[C@H]1CC[C@H](C(=O)Nc3ccncc3)CC1)c(=O)n2Cc1cccc(C(F)(F)F)c1C#N | 25.1 | 6.3 | –
5 | N#Cc1ccccc1Cn1c(=O)n(C[C@H]2CC[C@H](C(=O)Nc3ccncc3)CC2)c(=O)c2ccccc21 | 6.3 | 4 | bioavailability [3]: 3.6%; clearance [4]: 91.2 mL/min/kg; AUC/dose [5]: 37.7 ng·h/mL; Vd [6]: 4.42 L/kg; half-life [7]: 43.2 min
6 | Cc1ccc2c(c1C)c(=O)n(C[C@H]1CC[C@H](C(=O)O)CC1)c(=O)n2Cc1cccc(C(F)(F)F)c1C#N | 251 | 15.8 | –
7 | N#Cc1c(Cn2c(=O)n(C[C@H]3CC[C@H](C(=O)Nc4ccncc4)CC3)c(=O)c3ccccc32)cccc1C(F)(F)F | 12.6 | 2 | –
8 | Cc1c(C(N)=O)ccc2c1c(=O)n(C[C@H]1CC[C@H](C(=O)Nc3ccncc3)CC1)c(=O)n2Cc1cccc(C(F)(F)F)c1C#N | 63.1 | 25.1 | –
9 | Cc1cccc2c1c(=O)n(C[C@H]1CC[C@H](C(=O)Nc3ccncc3)CC1)c(=O)n2Cc1cccc(Cl)c1C#N | 6.3 | 2 | half-life [8]: 37.2 min; Vd [9]: 2.1 L/kg; clearance [10]: 45.9 mL/min/kg
10 | N#Cc1ccccc1Cn1c(=O)n(C[C@H]2CC[C@H](C(=O)Nc3ccncc3)CC2)c(=O)c2ncccc21 | 79.4 | 126 | –
11 | COc1cccc2c1c(=O)n(C[C@H]1CC[C@H](C(=O)O)CC1)c(=O)n2Cc1cccc(C(F)(F)F)c1C#N | 20 | 8.1 | –
12 | COc1cccc2c1c(=O)n(C[C@H]1CC[C@H](C(=O)Nc3ccncc3)CC1)c(=O)n2Cc1cccc(C(F)(F)F)c1C#N | 12.6 | 4 | –
13 | Cc1ccc(NC(=O)[C@H]2CC[C@H](Cn3c(=O)c4c(C)cccc4n(Cc4cccc(C(F)(F)F)c4C#N)c3=O)CC2)cn1 | 15.8 | 4 | –
14 | Cc1cccc2c1c(=O)n(C[C@H]1CC[C@H](C(=O)Nc3ccncc3)CC1)c(=O)n2Cc1ccccc1C#N | 10 | 3.2 | –
15 | N#Cc1ccccc1Cn1c(=O)n(C[C@H]2CC[C@H](C(=O)Nc3ccncc3)CC2)c(=O)c2ccncc21 | 25.1 | 63.1 | –
16 | N#Cc1c(Cn2c(=O)n(C[C@H]3CC[C@H](C(=O)Nc4ccncc4)CC3)c(=O)c3c(Cl)cccc32)cccc1C(F)(F)F | 6.3 | 3.2 | –
17 | N#Cc1c(Cn2c(=O)n(C[C@H]3CC[C@H](C(=O)O)CC3)c(=O)c3c(F)cccc32)cccc1C(F)(F)F | 63.1 | 39.8 | –
18 | Cc1cccc2c1c(=O)n(C[C@H]1CC[C@H](C(=O)Nc3ccncc3)CC1)c(=O)n2Cc1cccc(C(F)(F)F)c1C#N | 39.8 | 3.2 | –
19 | N#Cc1ccccc1Cn1c(=O)n(C[C@H]2CC[C@H](C(=O)Nc3ccncc3)CC2)c(=O)c2nc[nH]c21 | 251 | 100 | –
20 | N#Cc1ccccc1Cn1c(=O)n(C[C@H]2CC[C@H](C(=O)NCc3ccccc3)CC2)c(=O)c2ccccc21 | > 5000 | 631 | IC50 [11]: 7940 nM
21 | Cc1cccc(Cn2c(=O)n(C[C@H]3CC[C@H](C(=O)Nc4ccncc4)CC3)c(=O)c3c(C)cccc32)c1C#N | 31.6 | 2 | –
22 | Cc1cccc2c1c(=O)n(C[C@H]1CC[C@H](C(=O)Nc3ccnnc3)CC1)c(=O)n2Cc1cccc(C(F)(F)F)c1C#N | 31.6 | 2.5 | –
23 | N#Cc1c(Cn2c(=O)n(C[C@H]3CC[C@H](C(=O)Nc4ccncc4)CC3)c(=O)c3c(F)cccc32)cccc1C(F)(F)F | 15.8 | 4 | –
24 | N#Cc1c(Cn2c(=O)n(C[C@H]3CC[C@H](C(=O)O)CC3)c(=O)c3ccccc32)cccc1C(F)(F)F | 63.1 | – | bioavailability [12]: 14.5%; clearance [13]: 1.88 mL/min/kg; half-life [14]: 312 min; AUC/dose [15]: 1293 ng·h/mL; Vd [16]: 0.81 L/kg
25 | Cc1c(F)ccc2c1c(=O)n(C[C@H]1CC[C@H](C(=O)Nc3ccncc3)CC1)c(=O)n2Cc1cccc(C(F)(F)F)c1C#N | 15.8 | 3.2 | –
